Here are results for three molecules from paper PMC10716780, “The multistep oxidation of cholesterol to pregnenolone by human cytochrome P450 11A1 is highly processive” (The Journal of Biological Chemistry, 2023).

Usually Km stands for the substrate concentration at which the rate is half of its maximum. The term kcat denotes the number of substrate molecules converted per active site and unit of time at saturation.

Structures are written as SMILES. Values joined by “and” are separate entries in the source; they are usually repeats but may differ in a detail not shown here. Equal entries are not always repeated.

The target of the data set is T1, human P450 11A1 (Homo sapiens, UniProt P05108).
T1 sequence (P05108 41-521 limits assumed): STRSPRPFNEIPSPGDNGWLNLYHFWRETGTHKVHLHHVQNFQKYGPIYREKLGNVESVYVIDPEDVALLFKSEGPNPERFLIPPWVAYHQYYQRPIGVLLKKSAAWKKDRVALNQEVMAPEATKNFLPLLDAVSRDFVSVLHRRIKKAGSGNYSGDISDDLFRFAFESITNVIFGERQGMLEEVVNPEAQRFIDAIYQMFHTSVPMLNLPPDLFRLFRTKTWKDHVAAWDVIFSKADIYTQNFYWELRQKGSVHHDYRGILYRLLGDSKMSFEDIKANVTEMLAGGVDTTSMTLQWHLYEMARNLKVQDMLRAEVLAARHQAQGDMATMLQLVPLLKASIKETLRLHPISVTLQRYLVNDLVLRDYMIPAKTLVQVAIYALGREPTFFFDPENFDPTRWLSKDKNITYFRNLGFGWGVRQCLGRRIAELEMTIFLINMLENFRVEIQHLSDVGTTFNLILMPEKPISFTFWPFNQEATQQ
T1 sequence (P00257 59-186 partner): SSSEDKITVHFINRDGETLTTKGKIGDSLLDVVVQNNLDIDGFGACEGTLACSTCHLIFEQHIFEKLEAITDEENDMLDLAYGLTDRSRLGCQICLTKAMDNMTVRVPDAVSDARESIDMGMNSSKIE
Put plainly: Steady-state conversion of sterols to pregnenolone by reconstituted P450 11A1 (UPLC-MS of dansyl hydrazone). Particulars: for Km / kcat / kcat (conversion of sterol to pregnenolone): 0.25 μM P450, 0.5 μM AdR, 10 μM Adx, 37 °C; for rate of pregnenolone formation: duplicate, raw data of Fig. 5. Also noted: M A S T R S P R P F N E I P S P G D N; Met-Ala (N-terminal start residues in place of the transit peptide and Ile40) (N); made in house; host or cells: E. coli (P450 11A1 in C41(DE3); Adx and AdR in E. coli). Format: biochemical. The procedure:
Accordingly, all steady-state assays were done, unless otherwise noted, with a P450 11A1:Adx:AdR molar ratio of 1:40:2 (Fig. 2, that is, 0.25 μM P450, 10 μM Adx, and 0.5 μM AdR), in the absence of added lipid or detergent, and with the addition of sterol substrates in HPCD (stock 45% w/v).
As mentioned in the Introduction, many types of assays have been used to monitor the steady-state conversion of cholesterol to pregnenolone ([12], [14], [15], [16], [17], [18], [19], [20], [21]). A reliable and sensitive method was required that could be used for presteady-state reactions and was not reliant on the presence of isotope in cholesterol, in that, we also worked with 22R-OH cholesterol and 20R,22R-(OH)2 cholesterol as substrates. We utilized a method based on our work with P450 17A1 ([41], [42]), in which we derivatized the product pregnenolone as its dansyl hydrazone and separated it by ultra-performance liquid chromatography (UPLC) with detection by positive ion electrospray mass spectrometry (MS). The steroid dehydroepiandosterone (DHEA) was used an internal standard.
Reactions were performed by reconstituting P450 (0.25 μM), AdR (0.5 μM), and Adx (10 μM) on ice for 10 min prior to dilution in potassium Hepes buffer (50 mM, pH 7.4) and H2O and the addition of substrate (sterol, in HPCD (45% w/v)). Sterol dilutions were performed in HPCD to ensure that the HPCD composition was equal throughout all incubations (final 4.5% w/v). The reaction mixture was split between vials (425 μl in each), and reactions were preincubated (37 °C, 5 min) prior to initiation (75 μl) with an NADPH-generating system (0.5 mM NADP^+, 10 mM glucose 6-phosphate, and 2 μg ml^−1 glucose 6-phosphate dehydrogenase) ([61]). Reactions (5 min) were terminated by extraction into CH2Cl2 (2 ml) and transferred to an ice bath. After the experiment was complete, the quenched reactions were subjected to centrifugation (10^3g, 5 min, 23 °C) to separate layers, the organic (bottom) layer of each sample was removed (1.6 ml) to fresh glass vials, and the samples were brought to dryness under a stream of nitrogen.
Steroid extracts were subsequently derivatized with dansylhydrazine and analyzed as described previously ([42]). Briefly, the dried residue was resuspended (200 μl) in C2H5OH (fortified with 0.1% v/v CF3CO2H, as the derivatization reaction is H^+-catalyzed) and mixed with a vortex device. Samples were transferred to 1.5 ml amber glass vials, solutions of dansylhydrazine (10 mM) and DHEA, 10 μM, as internal standard) were added, and vials were capped, mixed with a vortex device, and incubated in the dark overnight (∼16 h, 23 °C). The derivatization reaction was quenched with acetone […], briefly incubated in the dark (∼30 min, 23 °C), and was then neutralized with base (250 μl of 0.5 M NaOH) and extracted into CH2Cl2 (1 ml). The samples were mixed with a vortex device and the organic (bottom) layer was removed (0.8 ml) to clean amber vials. Solvent was again removed under nitrogen, and the dried residue was dissolved in a mobile phase (100 μl) of 0.1% CF3CO2H in aqueous CH3CN (50%, v/v) for analysis.
Samples were injected (10 μl, held at 25 °C) on a 2.1 mm × 50 mm (1.7 μm) Acquity BEH octadecylsilane (C18) column (held at 40 °C) using a Waters Acquity UPLC with a flow rate of 0.2 ml min^−1 and a gradient mobile phase of (A) 0.1% aqueous HCO2H and (B) CH3CN as follows (all %B, v/v): 0 min, 40%; 0.5 min, 40%; 8 min, 100%; 8.5 min, 95%; 9 min, 100%; 9.1 min, 40%; and 10 min, 40%.

For `CC(C)CC[C@@H](O)[C@](C)(O)[C@H]1CC[C@H]2[C@@H]3CC=C4C[C@@H](O)CC[C@]4(C)[C@H]3CC[C@]12C` [20R,22R-(OH)2 Chol, (20R,22R)-Cholest-5-ene-3β,20,22-triol], the Km was 36 ± 7 µM, the kcat turned out to be 0.233 ± 0.017 s⁻¹ and the “kcat (conversion of sterol to pregnenolone)” value was found to be 0.23 ± 0.02 s⁻¹. For the setting “steady state”, the “kcat and kcat/Km relative to starting substrate cholesterol (greater)” value is given as approximately 2 fold. Also, under “substrate 5 µM, listed as 20R,22R-(OH)2 Cholesterol”, the “rate of pregnenolone formation” value was 2.46 min⁻¹ and 2.24 min⁻¹. Besides, for the setting “substrate 7.5 µM, listed as 20R,22R-(OH)2 Cholesterol”, the “rate of pregnenolone formation” value was 2.57 min⁻¹ and 2.85 min⁻¹. Moreover, for the setting “substrate 15 µM, listed as 20R,22R-(OH)2 Cholesterol”, the “rate of pregnenolone formation” value was 3.83 min⁻¹ and 4.18 min⁻¹. Moreover, where the note is “substrate 20 µM, listed as 20R,22R-(OH)2 Cholesterol”, the “rate of pregnenolone formation” value was 4.26 min⁻¹ and 5.83 min⁻¹. Further, the “rate of pregnenolone formation” value (substrate 30 µM, listed as 20R,22R-(OH)2 Cholesterol) is 5.47 min⁻¹ and 6.23 min⁻¹. Also, the “rate of pregnenolone formation” value (substrate 40 µM, listed as 20R,22R-(OH)2 Cholesterol) is 7.20 min⁻¹ and 6.21 min⁻¹. For the same molecule, the “rate of pregnenolone formation” value (substrate 50 µM, listed as 20R,22R-(OH)2 Cholesterol) is 6.51 min⁻¹ and 8.53 min⁻¹. In addition, the “rate of pregnenolone formation” value (substrate 75 µM, listed as 20R,22R-(OH)2 Cholesterol) was 7.45 min⁻¹ and 10.26 min⁻¹. Further, the “rate of pregnenolone formation” value (substrate 100 µM, listed as 20R,22R-(OH)2 Cholesterol) is 12.01 min⁻¹ and 10.27 min⁻¹. Where the note is “substrate 150 µM, listed as 20R,22R-(OH)2 Cholesterol”, the “rate of pregnenolone formation” value is 9.70 min⁻¹ and 11.61 min⁻¹.

On to `CC(C)CC[C@H](O)[C@](C)(O)[C@H]1CC[C@H]2[C@@H]3CC=C4C[C@@H](O)CC[C@]4(C)[C@H]3CC[C@]12C` [20R,22S-(OH)2 Chol, (20R,22S)-Cholest-5-ene 3β,20,22-triol], for which the Km was 15 ± 2 µM, the kcat worked out at 0.0833 ± 0.0033 s⁻¹ and the “kcat (conversion of sterol to pregnenolone)” value turned out to be 0.083 ± 0.003 s⁻¹. In addition, where the note is “steady state”, the “kcat lower than native diol 20R,22R-(OH)2 cholesterol” value is recorded as approximately 3 fold. For the same molecule, for the setting “substrate 7.5 µM, listed as 20R,22S-(OH)2 Cholesterol”, the “rate of pregnenolone formation” value was 2.07 min⁻¹ and 1.68 min⁻¹. For the same molecule, the “rate of pregnenolone formation” value (substrate 15 µM, listed as 20R,22S-(OH)2 Cholesterol) is 1.97 min⁻¹ and 1.99 min⁻¹. In addition, the “rate of pregnenolone formation” value (substrate 20 µM, listed as 20R,22S-(OH)2 Cholesterol) was 2.93 min⁻¹ and 2.88 min⁻¹. The “rate of pregnenolone formation” value (substrate 30 µM, listed as 20R,22S-(OH)2 Cholesterol) was 3.59 min⁻¹ and 3.11 min⁻¹. Also, where the note is “substrate 40 µM, listed as 20R,22S-(OH)2 Cholesterol”, the “rate of pregnenolone formation” value was 3.90 min⁻¹ and 4.10 min⁻¹. In addition, the “rate of pregnenolone formation” value (substrate 50 µM, listed as 20R,22S-(OH)2 Cholesterol) was 3.70 min⁻¹ and 3.57 min⁻¹. The “rate of pregnenolone formation” value (substrate 75 µM, listed as 20R,22S-(OH)2 Cholesterol) was 4.16 min⁻¹ and 4.38 min⁻¹. Under “substrate 100 µM, listed as 20R,22S-(OH)2 Cholesterol”, the “rate of pregnenolone formation” value is 4.14 min⁻¹ and 4.09 min⁻¹. Where the note is “substrate 150 µM, listed as 20R,22S-(OH)2 Cholesterol”, the “rate of pregnenolone formation” value is 4.64 min⁻¹ and 4.37 min⁻¹.

Turning to `CC(C)CC[C@@H](O)[C@@H](C)[C@H]1CC[C@H]2[C@@H]3CC=C4C[C@@H](O)CC[C@]4(C)[C@H]3CC[C@]12C` [22R-OH Chol, 22R-hydroxycholesterol], the Km is 29 ± 3 µM, the turnover number (kcat) was 0.152 ± 0.005 s⁻¹ and the “kcat (conversion of sterol to pregnenolone)” value was 0.15 ± 0.01 s⁻¹. In addition, under “substrate 2.5 µM, listed as 22R-OH Cholesterol”, the “rate of pregnenolone formation” value was 1.34 min⁻¹ and 1.02 min⁻¹. Further, the “rate of pregnenolone formation” value (substrate 5 µM, listed as 22R-OH Cholesterol) was 1.68 min⁻¹ and 1.48 min⁻¹. In addition, for the setting “substrate 7.5 µM, listed as 22R-OH Cholesterol”, the “rate of pregnenolone formation” value is 1.94 min⁻¹ and 2.15 min⁻¹. Moreover, the “rate of pregnenolone formation” value (substrate 15 µM, listed as 22R-OH Cholesterol) was 3.15 min⁻¹ and 3.07 min⁻¹. Moreover, the “rate of pregnenolone formation” value (substrate 20 µM, listed as 22R-OH Cholesterol) was 3.29 min⁻¹ and 3.38 min⁻¹. In addition, the “rate of pregnenolone formation” value (substrate 30 µM, listed as 22R-OH Cholesterol) was 4.66 min⁻¹ and 5.17 min⁻¹. Besides, where the note is “substrate 40 µM”, the “rate of pregnenolone formation” value amounted to 5.08 min⁻¹. Where the note is “substrate 50 µM, listed as 22R-OH Cholesterol”, the “rate of pregnenolone formation” value is 5.23 min⁻¹ and 5.80 min⁻¹. Further, for the setting “substrate 75 µM, listed as 22R-OH Cholesterol”, the “rate of pregnenolone formation” value is 6.76 min⁻¹ and 6.27 min⁻¹. The “rate of pregnenolone formation” value (substrate 100 µM, listed as 22R-OH Cholesterol) was 7.41 min⁻¹ and 6.71 min⁻¹. Also, where the note is “substrate 150 µM, listed as 22R-OH Cholesterol”, the “rate of pregnenolone formation” value was 7.68 min⁻¹ and 8.05 min⁻¹.
